The text below walks through data of PMC3790782, “Optimization and Pharmacological Validation of a Leukocyte Migration Assay in Zebrafish Larvae for the Rapid In Vivo Bioactivity Analysis of Anti-Inflammatory Secondary Metabolites” (PLoS ONE, 2013).

Converted amounts (≈) assume the structure as drawn. Where a name gives a salt, the structure may show the parent alone. Marks after values point to notes of the source that are not given here.

One data set deals with zebrafish larvae. The settings on record: 4 dpf zebrafish larvae, 8 h post-incubation; not more than 2 of 10 larvae with signs of toxicity. As for the experimental part:
For the toxicological analysis, ten 4 dpf zebrafish larvae were used per well in 24-well culture plates. Incubation of each set of larvae at 28°C (±0.5) was done with SAIDs, NSAIDs and non-AIDs at concentrations ranging from 0.1 µM to 500 µM, with NPs at concentrations ranging from 1 µM to 500 µM, and with PEs at concentrations ranging from 1 ug/ml to 1 mg/ml. Controls containing only vehicle (1% DMSO) and untreated larvae were processed in parallel. Examination of each set of larvae was done under light microscopy (Carl Zeiss Stemi 2000C) each hour during a period of 8 h, and a final evaluation at 24 h post-incubation. At 8 h post-incubation, signs of toxicity, e.g. pericardial oedema, cardiovascular defects (arrhythmia or decreased circulation), balance defects (loss of normal posture), locomotor defects (decreased touch response), and ultimately death were scored for every drug, NP, and PE to further establish their maximum tolerated concentration (MTC). […] In this context, only non-toxic concentrations (below the MTC) were considered for further leukocyte migration analysis. All the toxicological assays were performed in duplicate using a different batch of zebrafish larvae for each set of experiments.
Toxicological assessment of all the samples analyzed in our study was done prior to the evaluation of their anti-inflammatory properties. The maximum tolerated concentrations (MTCs) were determined at 8 h post-treatment according to toxicological parameters including pericardial oedema, cardiovascular defects (arrhythmia or decreased circulation), balance defects (loss of normal posture), locomotor defects (decreased touch response), and death. […] Vehicle-treated (1% DMSO) and untreated larvae were processed in parallel to minimize experimental variability in this toxicological evaluation.

Data set [1] concerns leukocyte migration in 4 dpf zebrafish larvae. The data set can be described thus: LPS-enhanced leukocyte migration assay (tail transection, MPO staining, RLM). Format: in vivo, zebrafish (Danio rerio). Also noted: Anti-inflammatory activity at MTC: concentration or dose not given beside the values. The conditions noted are these: for Leukocyte migration (RLM) / response vs control in vivo at 1 µM / response vs control in vivo at 10 µM / response vs control in vivo at 30 µM / Relative leukocyte migration (RLM) / response vs control in vivo at 100 µM / response vs control in vivo at 300 µM / response vs control in vivo at 500 µM: tail cut + 10 µg/ml LPS, relative to 1% DMSO control; for response vs control in vivo at 1 µM / response vs control in vivo at 10 µM / response vs control in vivo at 30 µM / response vs control in vivo at 100 µM / response vs control in vivo at 300 µM / response vs control in vivo at 500 µM: Danio rerio, Leukocyte, 8 h; for Anti-inflammatory activity at MTC: (1−RLM)x100; for RLM (zebrafish-based assay): at the MTC given in Table 2. As for the experimental part: The lipopolysaccharide- (LPS−)enhanced leukocyte migration assay was carried out by triplicate for each sample in 4 dpf zebrafish larvae. The total incubation period of the assay was eight hours. Initially, a pre-incubation step (i.e. prior to tail transection) of one hour at 28°C (±0.5°C) was carried out in 24-well culture plates. Ten larvae per well were incubated in 1 ml of testing mix, consisting of a specific concentration of each sample and the amount of 0.3 X Danieau’s medium necessary to complete 1 ml. Immediately after pre-incubation, complete tail transection in each larva was performed. Zebrafish larvae were first anesthetized by immersion in 0.3 X Danieau’s medium containing 70 µg/ml tricaine (ethyl 3-aminobenzoate, Sigma-Aldrich) and then tail transection near the tip was performed with a sterile scalpel under light microscopy (Carl Zeiss Stemi 2000C). Larvae were then placed in fresh 0.3 X Danieau’s medium without anesthetic for a few minutes until the final incubation period. For the last step, a new testing mix was prepared including 10 µg/ml lipopolysaccharides from Salmonella typhosa ATCC 10749 (LPS, Sigma-Aldrich Chemical) to enhance leukocyte migration to the injured zone. The final incubation step (i.e. subsequent to tail transection) of the injured larvae in contact with the pro-inflammatory agent and with the specific concentration of each SAID, NSAID, non-AID, NP, and PE at 28°C (±0.5°C) was done for 7 h. Within this period, sporadic evaluations of the larvae were done to examine their viability during the time of the assay. Larvae that completed the incubation time were fixed overnight in 4% formaldehyde (Sigma-Aldrich) at 4°C. Controls containing only the vehicle (1% DMSO) were processed in parallel.
Fixed larvae were gently washed twice with 1 X PBST (PBS-1X phosphate buffered saline, Gibco +0.1% Tween 20) for 5–10 min and then incubated at room temperature in 1 ml of freshly prepared Leucognost® Pox (Merck) staining solution, made according the directions of the provider. Observation of stained black-brown cells (leukocytes) in the larvae was possible within 15 min of incubation. Evaluation of the migrating leukocytes, particularly surrounding the injured region, in each larva was done under light microscopy (Carl Zeiss Stemi 2000C) and scoring was done using a migration scale established to semi-quantify the amount of migrating leukocytes on one side of each larva.
The average of the value achieved for each of the ten larvae tested in triplicate for one sample is expressed as relative leukocyte migration (RLM) according to the formula: RLM = leukocyte migration of the larva/average leukocyte migration of the negative control.
To determine the extent of leukocyte migration generated after exposing 4 dpf zebrafish larvae to mechanical and biological stimuli – namely tail transection and LPS exposure – we used a commercially available whole-mount cytochemical staining method (Leucognost® Pox, Merck) to detect MPO activity in situ. To minimize the number of handling steps post-staining, this method was chosen over the alternative myeloperoxidase stain Sudan Black B [26], [27], which also stains phospholipids, neural fats and sterols. In our experiments, we visualized migrating leukocytes in 4 dpf larvae at 8 h post-injury. Microscopic evaluations of MPO-stained larvae allowed us to score the degree of leukocyte migration at the trauma site according to a comparative scale that we established particularly for this purpose (Figure 2). Myeloperoxidase-positive cells, appearing as black-brown dots, were counted in a segment at the edge of the tail on one side of every larva (Figure 2). The number of leukocytes was then graded according to the comparative scale and subsequently converted into a relative value expressed as the relative leukocyte migration (RLM) activity for the total number or larvae for one sample.

The next data set has as its system TNF-α, RAW 264.7. The conditions noted are these: cited from earlier work.
The next data set concerns PGE2, rat macrophages. The settings on record: cited from earlier work.
The subject of a further data set is TNF-α, iNOS, macrophages. Details: method as in PMID 19378317, PMID 15668926. The settings on record: cited from earlier work.
Another data set has as its system IL-4, RBL-2H3. Also noted: method as in PMID 19378317, PMID 17982104, PMID 21443976. The conditions noted are these: cited from earlier work.
A further data set has as its system TNF-α, RBL-2H3. Details: method as in PMID 19378317, PMID 17982104, PMID 21443976. The settings on record: cited from earlier work.
For another data set, the system named is IL-1β, human monocytes. Details: method as in PMID 19378317, PMID 17982104, PMID 21443976. The settings on record: cited from earlier work.
For data set [2], the system named is COX, rat peritoneal leukocytes. Also noted: method as in PMID 19378317, PMID 16220571, PMID 21443976. The settings on record: cited from earlier work.

Turning to `O=C1C[C@@H](c2ccc(O)cc2)Oc2cc(O)cc(O)c21` [Naringenin, naringenin], the “Maximum tolerated concentration (MTC)” value with zebrafish larvae was 30 µM. In addition, in data set [1] (30 µM), the “Leukocyte migration (RLM)” value is 0.37 ^** and the response vs control in vivo at 30 µM worked out at 37%. Further, in data set [1], the response vs control in vivo at 1 µM was found to be 67%, the response vs control in vivo at 10 µM was determined as 42%, the “Anti-inflammatory activity at MTC” value was found to be 63% and the “RLM (zebrafish-based assay)” value was 0.37.
Take `C[C@]12C=CC(=O)C=C1CC[C@@H]1[C@@H]2[C@@H](O)C[C@@]2(C)[C@H]1CC[C@]2(O)C(=O)CO` [prednisolone]: the “Relative leukocyte migration (RLM)” value is given as 0.66 in data set [1] (0.1 µM) and 0.07 in data set [1] (200 µM).
On to `CN1C(C(=O)Nc2ccccn2)=C(O)c2ccccc2S1(=O)=O` [piroxicam], for which the “Maximum tolerated concentration (MTC)” value with zebrafish larvae is 100 µM. In addition, the “Relative leukocyte migration (RLM)” value in [1] (0.1 µM) worked out at 0.85. For the same compound, in data set [1], the response vs control in vivo at 100 µM stood at 3%.
In the case of `O=c1c(O)c(-c2ccc(O)c(O)c2)oc2cc(O)cc(O)c12` [Quercetin, quercetin], the “Maximum tolerated concentration (MTC)” value in the data set with zebrafish larvae came to 500 µM. In addition, in [1] (500 µM), the “Leukocyte migration (RLM)” value is on record as 0.31 ^* and the response vs control in vivo at 500 µM turned out to be 31%. In addition, in data set [1], the response vs control in vivo at 1 µM amounted to 65%, the response vs control in vivo at 10 µM was found to be 55%, the response vs control in vivo at 100 µM was 42% and the “Anti-inflammatory activity at MTC” value was 69%. Also, the “RLM (zebrafish-based assay)” value in data set [1] was determined as 0.31. Moreover, the response vs control in vivo at 30 µM in data set [1] (30 µM) is 35%. For the same compound, the response vs control in vivo at 300 µM in [1] (300 µM) is 40%. Also, the “Anti-inflammatory activity at MTC” value in data set [1] (listed as quercetin) stood at 69%. Also, the IC50 in the data set on TNF-α, RAW 264.7 was 1 µM. Also, in the data set with PGE2, rat macrophages, the IC50 was 13.9 µM. In addition, the IC50 in the data set on TNF-α, iNOS, macrophages was 50 µM.
Regarding `O=c1cc(-c2ccc(O)cc2)oc2cc(O)cc(O)c12` [Apigenin, apigenin], the “Maximum tolerated concentration (MTC)” value in the data set with zebrafish larvae is on record as 500 µM. In data set [1] (500 µM), the “Leukocyte migration (RLM)” value is listed as 0.35 ^*** and the response vs control in vivo at 500 µM was 35%. Moreover, in data set [1], the response vs control in vivo at 1 µM stood at 74%, the response vs control in vivo at 10 µM was found to be 53%, the response vs control in vivo at 100 µM stood at 37% and the “Anti-inflammatory activity at MTC” value stood at 65%. Also, the “RLM (zebrafish-based assay)” value in data set [1] is given as 0.35. Moreover, in data set [1] (30 µM), the response vs control in vivo at 30 µM was determined as 54%. Further, the response vs control in vivo at 300 µM in data set [1] (300 µM) is 37%. For the same compound, the “Anti-inflammatory activity at MTC” value in data set [1] (listed as apigenin) was determined as 65%. In addition, the IC50 in the data set with IL-4, RBL-2H3 is 3.6 µM. Also, the IC50 in the data set with TNF-α, RBL-2H3 is 5.3 µM. Moreover, the concentration for half-maximal inhibition (IC50) with IL-1β, human monocytes is 10 µM.
Take `COc1ccc2c(c1)c(CC(=O)O)c(C)n2C(=O)c1ccc(Cl)cc1` [indomethacin]: in the data set on zebrafish larvae, the “Maximum tolerated concentration (MTC)” value is 200 µM. Further, the “Relative leukocyte migration (RLM)” value in data set [1] (0.1 µM) stood at 0.72; in [1] (200 µM), 0.09.
For `C[C@@H]1C[C@H]2[C@@H]3CCC4=CC(=O)C=C[C@]4(C)[C@@]3(F)[C@@H](O)C[C@]2(C)[C@@]1(O)C(=O)CO` [dexamethasone], the “Relative leukocyte migration (RLM)” value in data set [1] (0.1 µM) is listed as 0.81; in [1] (200 µM), 0.06.
In the case of `NC12CC3CC(CC(C3)C1)C2` [amantadine, amantadine hydrochloride], the “Maximum tolerated concentration (MTC)” value in the data set on zebrafish larvae came to 200 µM. Further, the “Relative leukocyte migration (RLM)” value in data set [1] (200 µM) amounted to 0.82.
On to `C[C@]1(OC(=O)/C=C/c2ccccc2)C[C@@H](O)[C@]2(O)C=CO[C@@H](O[C@@H]3O[C@H](CO)[C@@H](O)[C@H](O)[C@H]3O)[C@@H]21` [Harpagoside, harpagoside], for which the “Maximum tolerated concentration (MTC)” value in the data set with zebrafish larvae came out at 300 µM. In data set [1] (300 µM), the “Leukocyte migration (RLM)” value was 0.12 ^* and the response vs control in vivo at 300 µM is 12%. Moreover, in data set [1], the response vs control in vivo at 1 µM is 48%, the response vs control in vivo at 10 µM is 29% and the response vs control in vivo at 100 µM turned out to be 15%. Besides, the response vs control in vivo at 30 µM in data set [1] (30 µM) is 30%.
With `O=c1cc(-c2ccc(O)c(O)c2)oc2cc(O)cc(O)c12` [Luteolin, luteolin], the “Maximum tolerated concentration (MTC)” value in the data set with zebrafish larvae is 500 µM. Besides, in data set [1], the response vs control in vivo at 1 µM is 63%, the response vs control in vivo at 10 µM was 61%, the response vs control in vivo at 100 µM stood at 48% and the “Anti-inflammatory activity at MTC” value is on record as 59%. Further, in data set [1], the “RLM (zebrafish-based assay)” value is 0.41. The response vs control in vivo at 30 µM in data set [1] (30 µM) is 55%. Further, the response vs control in vivo at 300 µM in data set [1] (300 µM) was 44%. Further, the response vs control in vivo at 500 µM in data set [1] (500 µM) was found to be 41%. For the same compound, in the data set on TNF-α, RAW 264.7, the IC50 is below 1 µM. For the same compound, the IC50 in data set [2] was 100 µg/mL (≈ 349 µM).
As to `Nc1nc(N)nc(N)n1` [melamine], the “Maximum tolerated concentration (MTC)” value in the data set on zebrafish larvae is on record as 200 µM. The “Relative leukocyte migration (RLM)” value in [1] (200 µM) is given as 0.85.
Take `CN(C)CCC=C1c2ccccc2COc2ccccc21` [doxepin, doxepin hydrochloride]: the response vs control in vivo at 30 µM in [1] (30 µM) is 71%.
As for `O=C(O)Cc1ccccc1Nc1c(Cl)cccc1Cl` [diclofenac], in the data set with zebrafish larvae, the “Maximum tolerated concentration (MTC)” value is listed as 10 µM. In [1] (0.1 µM), the “Relative leukocyte migration (RLM)” value stood at 0.69. Moreover, the response vs control in vivo at 10 µM in [1] was determined as 13%.
